The values below are quoted from earlier work in EP3292864A1, “MODIFIED RELEASE TABLET COMPOSITION COMPRISING MIRABEGRON” (Synthon B.V., priority 2017, dated 2018).

Structures are written as SMILES.

`Nc1nc(CC(=O)Nc2ccc(CCNC[C@H](O)c3ccccc3)cc2)cs1` [Mirabegron, (R)-2-(2-aminothiazol-4-yl)-4'-[2-[(2-hydroxy-2-phenylethyl)amino]ethyl]acetic acid anilide]: the solubility in water entry (assessment report of Betmiga® published by the European Medicines Agency) is on record as “soluble in water between neutral to acidic pH”. The solubility result (per BCS class) was “high solubility”.
